Reference: patent publication US12624050B2, “Three fused ring derivative-containing salt or crystal form and pharmaceutical composition thereof” (Shanghai Hansoh Biomedical Co., Ltd., priority 2019, dated 2026)

Tests used:
HCC1954 cell = assay: In vivo efficacy test, HCC1954 tumor-bearing nude mice; set-up: species or system BALB/c nude mice; conditions: oral, 10 mg/kg, once/day, 21 days (Example 22: 19 days)
Description: • a. A strain of HCC1954 cell was taken from the cell bank, recovered with RPMI-1640 medium (RPMI-1640+10% FBS+1% SP), plated in a cell culture flask (cell type, date, name of the experimenter and the like were labeled on the wall of the flask) and cultured in a CO2 incubator (the temperature was 37° C. and the CO2 concentration was 5% in the incubator). • b. Cells were passaged when they covered 80 to 90% of the bottom of the culture flask. After passage, the cells continued to be cultured in the CO2 incubator. This process was repeated until the number of cells was sufficient for the in vivo efficacy test. • c. The cultured cells were collected and counted with an automatic cell counter, and then resuspended with PBS and Matrigel Matrix according to the counting results to prepare a cell suspension (density 5×10^7/mL), which was placed in an ice box for use. 4.3.2 Cell Inoculation • a. The nude mice were labeled with disposable universal ear tags for rats and mice before inoculation. • b. During the inoculation, the cell suspension was mixed well. 0.1 to 1 mL of the cell suspension was drawn with a 1 mL syringe, air bubbles were removed, and then the syringe was placed on an ice pack for use. • c. The nude mouse was bound with the left hand. The position on the right side of the back close to the right shoulder of the nude mouse (inoculation site) was disinfected with 75% alcohol. Inoculation started after 30 seconds. • d. The test nude mice were successively inoculated (each mouse was inoculated with 0.1 mL of cell suspension). 4.3.3 Tumor Measurement, Grouping and Administration of Tumor-Bearing Mice • a. According to the tumor growth, the tumors was measured on 14 to 18 days after inoculation, and the tumor size was calculated. Calculation of tumor volume: tumor volume (mm^3)=length (mm)×width (mm)×width (mm)/2 • b. The tumor-bearing mice were grouped according to their body weight and tumor size by random grouping. • c. The test compounds were administered according to the grouping results (administration route: oral administration; administration dose: 10 mg/kg; administration volume: 10 mL/kg; administration frequency: once/day; administration cycle: 21 days; vehicle: 0.5% CMC/1% Tween 80). • d. Tumors were measured and weighed twice a week after the administration of test compounds began. • e. Animals were euthanized at the end of the experiment. • f. Data were processed by using softwares such as Excel. […] When the tumor regress, TGI (%)=[1−(average tumor volume of the treatment group at the end of the administration−average tumor volume of the treatment group at the beginning of the administration)/average tumor volume of the treatment group at the beginning of the administration]×100%.

PI3Kδ = biological target: T1, PI3Kδ (Homo sapiens, UniProt O00329); assay: ADP-Glo Lipid Kinase Assay, PI3Kδ kinase activity; type: biochemical; conditions: for Selectivity of PI3Kα vs PI3Kδ: ratio of IC50 values
T1 construct: purchased Carna #11-103
Description: (§1) In this experiment, ADP-Glo Lipid Kinase Assay (Promega #V9102) from Promega was used. The lipid kinases PI3Kα/β/γ/δ catalyzed the ATP-to-ADP reaction in the presence of the substrate PIP2:3PS and ATP. The lipid kinase activity was characterized by measuring the ADP content in the reaction, and the half inhibition concentrations IC50 of the compounds on PI3Kα/β/γ/δ kinase activity were obtained.
(§2) Kinase reactions were carried out in white 384-well plates (Perkin Elmer #6007299). 2 μL of the compound of various concentrations diluted with ddH2O containing 1% DMSO was added to each well, and 2 μL of ddH2O containing 1% DMSO was added to positive control wells. Then 2 μL of 0.1 to 2 nM PI3K kinase solution diluted with 5× kinase buffer (HEPES 250 mM, MgCl2 15 mM, NaCl 250 mM, BSA 0.05%) was added to each well, and 2 μL of 5× kinase buffer was added to the negative control wells. 4 μL of 50 μM substrate PIP2:3PS (Promega #V1701) prepared with 10× Dilution buffer and ddH2O was added to all wells. Finally, 2 μL of 50 to 100 μM ATP solution diluted with water was added to start the reaction. After the reaction was carried out at room temperature for 90 to 120 minutes, 10 µL of ADP-Glo Reagent (containing 10 mM MgCl2) was added to each well, and the reaction was carried out at room temperature for 60 minutes to eliminate excess adenosine triphosphate (ATP) in the reaction. Then 20 μL of Kinase Detection Reagent was added to each well. After the reaction was carried out for 20 minutes at room temperature in the dark, the chemiluminescence was measured by BioTek Synergy H1 microplate reader.
(§3) The percentage inhibition data of the compound-treated well was calculated from positive control wells (DMSO control wells) and negative control wells (no kinase added) on the plate {% inhibition=100−[(test compound value−negative control value)]/(positive control value-negative control value)×100}. IC50 values were calculated using GraphPad prism and using a four-parameter nonlinear logistic formula to fit the data of different concentrations and corresponding percent inhibition.

PI3Kβ = biological target: T2, PI3Kβ (Homo sapiens, UniProt P42338); assay: ADP-Glo Lipid Kinase Assay, PI3Kβ kinase activity; type: biochemical; conditions: for Selectivity of PI3Kα vs PI3Kβ: ratio of IC50 values
T2 construct: purchased Carna #11-102
Description: as §1, §2, §3

HGC-27 (E542K) = assay: Proliferation inhibition of PI3Kα mutant cancer cells, Cell Titer-Glo, HGC-27; type: cell-based; conditions: Homo sapiens
Description: (§4) The proliferation inhibitory effect of the compounds of the examples on the PI3Kα mutant cancer cell lines (HCC1954, HGC-27 and MKN1) was detected by Cell Titer-Glo method. Cell lines were cultured in RPMI 1640 medium (Gibco #22400089) containing 10% FBS (Gibco #10091148) and 1% P/S (Hyclone #SV30010) under the condition of 37° C. and 5% CO2. The cells were collected before the experiment, and the cell density was adjusted after cell counting. The cells were seeded in a white 96-well plate (Corning #3610) at a density of 1000 to 10000 cells/well, and incubated in an incubator at 37° C. and 5% CO2 overnight. The prepared compound solutions of different concentrations and the corresponding solvent controls were added to the plate. The plate was again incubated in an incubator at 37° C. and 5% CO2 for 48 to 96 hours. Then the cell plate and its contents were equilibrated to room temperature. 20 to 100 μL of Cell Titer-Glo solution (Promega #G7573) was added to each well, and the plate was shaken and mixed well, then incubated at room temperature for 5 to 30 minutes in the dark. The chemiluminescence was measured by a SynergyH1 microplate reader from BioTek.
(§5) The percentage inhibition data of the compound-treated well was calculated from solvent control wells on the plate {% inhibition=100−([…])×100}. IC50 values were calculated using GraphPad prism and using a four-parameter nonlinear logistic formula to fit the data of different concentrations and corresponding percent inhibition.

MKN1 (E545K) = assay: Proliferation inhibition of PI3Kα mutant cancer cells, Cell Titer-Glo, MKN1; type: cell-based; conditions: Homo sapiens, MKN-1
Description: as §4, §5

PI3Kγ = biological target: T3, PI3Kγ (Homo sapiens, UniProt P48736); assay: ADP-Glo Lipid Kinase Assay, PI3Kγ kinase activity; type: biochemical; conditions: for Selectivity of PI3Kα vs PI3Kγ: ratio of IC50 values
T3 construct: purchased Thermofisher #PV4786
Description: as §1, §2, §3

HCC1954 (H1047R) = assay: Proliferation inhibition of PI3Kα mutant cancer cells, Cell Titer-Glo, HCC1954; type: cell-based; conditions: Homo sapiens
Description: as §4, §5

T3 sequence (P48736 whole entry): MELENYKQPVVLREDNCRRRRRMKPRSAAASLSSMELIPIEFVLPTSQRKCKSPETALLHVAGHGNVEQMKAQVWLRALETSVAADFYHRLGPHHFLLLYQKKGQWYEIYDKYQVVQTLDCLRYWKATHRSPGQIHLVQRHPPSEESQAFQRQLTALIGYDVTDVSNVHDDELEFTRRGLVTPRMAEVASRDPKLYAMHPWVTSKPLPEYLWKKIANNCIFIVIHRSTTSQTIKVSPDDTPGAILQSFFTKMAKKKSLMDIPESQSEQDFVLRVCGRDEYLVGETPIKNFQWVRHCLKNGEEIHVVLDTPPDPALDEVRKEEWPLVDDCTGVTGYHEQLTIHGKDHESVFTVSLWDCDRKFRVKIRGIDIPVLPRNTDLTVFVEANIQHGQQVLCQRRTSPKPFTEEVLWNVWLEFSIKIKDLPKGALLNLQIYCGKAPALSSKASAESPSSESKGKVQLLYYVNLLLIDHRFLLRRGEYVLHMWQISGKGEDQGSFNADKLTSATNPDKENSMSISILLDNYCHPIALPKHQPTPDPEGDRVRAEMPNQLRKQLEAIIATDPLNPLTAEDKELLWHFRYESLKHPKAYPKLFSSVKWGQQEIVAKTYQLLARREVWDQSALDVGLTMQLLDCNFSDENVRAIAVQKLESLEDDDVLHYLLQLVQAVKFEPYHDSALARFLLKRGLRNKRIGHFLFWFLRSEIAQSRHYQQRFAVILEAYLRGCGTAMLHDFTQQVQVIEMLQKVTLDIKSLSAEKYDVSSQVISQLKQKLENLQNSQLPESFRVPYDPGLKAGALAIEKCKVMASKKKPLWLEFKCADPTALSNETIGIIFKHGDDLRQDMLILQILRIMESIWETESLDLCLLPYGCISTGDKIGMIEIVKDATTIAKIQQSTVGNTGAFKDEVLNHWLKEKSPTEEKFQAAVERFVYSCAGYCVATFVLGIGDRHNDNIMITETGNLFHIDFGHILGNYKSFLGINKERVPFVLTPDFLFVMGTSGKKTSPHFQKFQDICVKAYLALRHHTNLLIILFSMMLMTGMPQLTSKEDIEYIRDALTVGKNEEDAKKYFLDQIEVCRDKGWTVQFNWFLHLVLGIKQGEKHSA
T2 sequence (P42338 whole entry): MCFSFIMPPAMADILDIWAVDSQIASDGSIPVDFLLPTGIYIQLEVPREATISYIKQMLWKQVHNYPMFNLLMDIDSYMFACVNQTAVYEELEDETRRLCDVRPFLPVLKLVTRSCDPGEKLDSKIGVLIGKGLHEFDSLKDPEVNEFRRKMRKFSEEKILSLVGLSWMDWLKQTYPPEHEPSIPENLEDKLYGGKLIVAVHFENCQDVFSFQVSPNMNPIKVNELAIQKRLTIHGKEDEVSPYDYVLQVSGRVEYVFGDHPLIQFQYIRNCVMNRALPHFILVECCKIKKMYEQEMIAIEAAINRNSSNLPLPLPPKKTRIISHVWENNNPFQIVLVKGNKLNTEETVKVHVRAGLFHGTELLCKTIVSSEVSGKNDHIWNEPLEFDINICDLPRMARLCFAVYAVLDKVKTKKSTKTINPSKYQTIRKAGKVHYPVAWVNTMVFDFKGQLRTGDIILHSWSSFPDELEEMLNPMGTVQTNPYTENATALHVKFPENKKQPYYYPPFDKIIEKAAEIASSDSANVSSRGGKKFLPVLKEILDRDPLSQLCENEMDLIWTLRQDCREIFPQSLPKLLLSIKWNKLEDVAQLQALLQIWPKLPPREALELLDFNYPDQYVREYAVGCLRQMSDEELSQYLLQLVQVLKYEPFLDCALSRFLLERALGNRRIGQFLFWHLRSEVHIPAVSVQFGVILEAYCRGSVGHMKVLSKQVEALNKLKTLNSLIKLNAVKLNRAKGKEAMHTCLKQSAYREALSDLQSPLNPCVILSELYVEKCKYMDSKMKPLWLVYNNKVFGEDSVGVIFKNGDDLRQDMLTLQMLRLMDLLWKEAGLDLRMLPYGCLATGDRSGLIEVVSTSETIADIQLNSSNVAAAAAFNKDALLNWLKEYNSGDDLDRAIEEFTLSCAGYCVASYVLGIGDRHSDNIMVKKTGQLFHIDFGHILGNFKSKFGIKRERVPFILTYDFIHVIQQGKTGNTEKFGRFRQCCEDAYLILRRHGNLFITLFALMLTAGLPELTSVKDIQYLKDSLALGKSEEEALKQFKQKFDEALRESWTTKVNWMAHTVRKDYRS
T2 sequence (P27986 whole entry partner): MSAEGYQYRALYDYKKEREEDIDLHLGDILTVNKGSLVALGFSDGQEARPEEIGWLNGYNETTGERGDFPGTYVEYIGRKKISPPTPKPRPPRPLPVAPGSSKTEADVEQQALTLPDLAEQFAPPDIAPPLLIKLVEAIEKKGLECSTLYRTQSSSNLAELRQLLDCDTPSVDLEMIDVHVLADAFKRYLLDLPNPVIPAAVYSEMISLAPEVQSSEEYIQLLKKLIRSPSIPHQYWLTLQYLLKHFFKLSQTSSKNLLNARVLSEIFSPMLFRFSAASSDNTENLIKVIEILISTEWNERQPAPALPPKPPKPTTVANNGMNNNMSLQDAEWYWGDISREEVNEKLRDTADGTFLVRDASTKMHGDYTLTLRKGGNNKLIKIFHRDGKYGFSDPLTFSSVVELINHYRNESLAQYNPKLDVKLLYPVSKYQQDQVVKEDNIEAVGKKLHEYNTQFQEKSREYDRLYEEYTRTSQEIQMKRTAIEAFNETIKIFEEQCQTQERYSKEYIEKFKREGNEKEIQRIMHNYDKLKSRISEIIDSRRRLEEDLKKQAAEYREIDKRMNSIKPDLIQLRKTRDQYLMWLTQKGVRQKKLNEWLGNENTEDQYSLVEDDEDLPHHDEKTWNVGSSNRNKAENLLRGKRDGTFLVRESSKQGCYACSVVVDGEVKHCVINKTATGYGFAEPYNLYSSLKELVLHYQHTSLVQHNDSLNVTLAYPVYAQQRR
T1 sequence (O00329 whole entry): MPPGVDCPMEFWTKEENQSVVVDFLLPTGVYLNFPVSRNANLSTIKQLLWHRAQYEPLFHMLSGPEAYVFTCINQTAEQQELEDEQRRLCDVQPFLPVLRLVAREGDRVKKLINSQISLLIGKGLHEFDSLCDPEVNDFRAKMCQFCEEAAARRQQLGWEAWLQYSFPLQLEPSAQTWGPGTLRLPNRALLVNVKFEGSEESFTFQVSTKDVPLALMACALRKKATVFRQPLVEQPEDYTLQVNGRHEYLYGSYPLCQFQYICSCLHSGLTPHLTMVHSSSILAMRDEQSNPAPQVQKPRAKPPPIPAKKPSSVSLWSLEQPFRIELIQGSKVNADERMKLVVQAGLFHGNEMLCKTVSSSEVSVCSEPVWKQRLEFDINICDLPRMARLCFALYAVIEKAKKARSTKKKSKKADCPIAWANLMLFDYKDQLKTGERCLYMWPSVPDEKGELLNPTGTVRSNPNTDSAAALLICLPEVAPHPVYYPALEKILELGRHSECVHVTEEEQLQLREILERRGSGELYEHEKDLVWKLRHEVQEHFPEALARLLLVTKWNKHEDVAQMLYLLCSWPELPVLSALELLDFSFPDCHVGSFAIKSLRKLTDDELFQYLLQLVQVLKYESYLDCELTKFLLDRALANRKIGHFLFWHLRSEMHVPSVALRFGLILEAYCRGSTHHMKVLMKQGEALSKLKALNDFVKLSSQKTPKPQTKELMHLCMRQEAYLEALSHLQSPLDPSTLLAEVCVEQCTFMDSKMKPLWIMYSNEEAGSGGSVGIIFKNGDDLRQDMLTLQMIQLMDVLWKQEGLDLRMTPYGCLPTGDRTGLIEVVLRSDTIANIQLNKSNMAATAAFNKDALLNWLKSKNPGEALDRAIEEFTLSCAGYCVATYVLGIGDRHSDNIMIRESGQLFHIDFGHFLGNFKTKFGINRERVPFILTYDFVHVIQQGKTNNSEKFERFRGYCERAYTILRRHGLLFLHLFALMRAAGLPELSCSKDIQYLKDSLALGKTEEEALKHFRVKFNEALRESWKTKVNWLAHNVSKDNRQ
T1 sequence (P27986 whole entry partner): as the sequence (P27986 whole entry partner) above

SMILES | Tumor growth inhibition rate (HCC1954 cell) [%] | IC50 (PI3Kδ) [nM] | Selectivity of PI3Kα vs PI3Kδ (PI3Kδ) | IC50 (PI3Kβ) [nM] | Selectivity of PI3Kα vs PI3Kβ (PI3Kβ) | IC50 (HGC-27 (E542K)) [nM] | IC50 (MKN1 (E545K)) [nM] | IC50 (PI3Kγ) [nM] | Selectivity of PI3Kα vs PI3Kγ (PI3Kγ) | IC50 (HCC1954 (H1047R)) [nM]
C[C@H](Nc1ccc2c(c1)SCCn1cc(N3C(=O)OC[C@H]3C(F)F)nc1-2)C(N)=O [Example 62, (S)-2-((2-((S)-4-(difluoromethyl)-2-oxooxazolidin-3-yl)-5,6-dihydrobenzo[f]imidazo[1,2-d][1,4]thiazepin-9-yl)amino)propionamide] | 147 | 28 | 280 | 102 | 1020 | 22 | 25 | 50 | 500 | 13
C[C@H](Nc1ccc2c(c1)N(C)CCn1cc(N3C(=O)OC[C@H]3C(F)F)nc1-2)C(N)=O [Example 56, (S)-2-((2-((S)-4-(difluoromethyl)-2-oxooxazolidin-3-yl)-7-methyl-6,7-dihydro-5H-benzo[f]imidazo[1,2-d][1,4]diazoheptin-9-yl)amino)propionamide] | 122 | 49 | 98 | 168 | 336 | 110 | 104 | 90 | 180 | 50
C[C@H](Nc1ccc2c(c1)OCCn1cc(N3C(=O)SC[C@H]3C(F)F)nc1-2)C(N)=O [Example 22, (S)-2-((2-((R)-4-(difluoromethyl)-2-oxothiazolidin-3-yl)-5,6-dihydrobenzo[f]imidazo[1,2-d][1,4]oxazepin-9-yl)amino)propionamide] | 132 |  | 245 |  | 840 | 40 | 60 |  | 450 | 21
